According to patent US4317768A, “Dihydropyridine derivatives as stabilizers for vinyl chloride polymers” (priority 1977, dated 1982):

Experiments:
[1] = Polarographic study of the oxidation potential; assay type: physicochemical; details: acetonitrile, 0.1 M lithium perchlorate, vitrous carbon electrode, calomel reference
Description: By a polarographic study of their oxidation potential, compared to well-known antioxidants such as 2,6-diterbutyl-4-methyl-phenol, 2-terbutyl-4-methoxy-phenol, 4-methoxy-phenol and hydroquinone.
Reference electrode: Calomel electrode containing a saturated solution of anhydrous lithium perchlorate as bridge liquid.
Working electrode: Vitrous carbon rotating electrode (2,500 r.p.m.)
Counter-electrode: Platinum electrode
Acetonitrile containing less than 0.1% of water and presenting no polarographic waves between -2.5 V and +2.5 V.
Anhydrous lithium perchlorate containing less than 1% of water.
A 0.1 M solution of lithium perchlorate in acetonitrile, treated and preserved on a 4 A molecular sieve.
Amplitude of exploration: 0 to 2 V
Speed of exploration: 10 mV/second
Sensitivity: 1.25 μA to 50 μA
Mean concentration: about 0.3×10^-3 mol/liter
Between each measurement, the vitrous carbon electrode and the platinum electrode were carefully cleaned with Joseph paper.

[2] = Comparison with stabilizer G1, 0.1 part, 185° C.
Protocol: A test was also carried out with the following compound:
Another test was made with the same resin but containing 0.1 part of stabilizer.

[3] = Comparison with stabilizer G1, rigid co-polymer (12.5 to 13.5% of acetate), 0.5 part, 185° C.
Description: Another comparison was made with the following rigid co-polymer: […]

[4] = Comparison with stabilizer G1, rigid co-polymer, 0.5 part, 185° C.
Description: (b) Comparison with stabilizer G1
Stabilizer G1 is a mixture of 1,4-butanediol-β-aminocrotonate and of β-aminocrotonate of alcohols containing from 16 to 18 carbon atoms.

[5] = Static thermostability (GARDNER method), rigid PVC sheets, 185° C., 0.3 part stabilizer
Protocol: (§1) This study was carried out according to the GARDNER method, described in British Pat. No. 1,489,685.
(§2) The reference substance was 2-phenyl-indole, a well-known and widely used stabilizer.
(§3) The stabilizer (dihydropyridine or 2-phenyl-indole) and the other usual ingredients were mixed with powdered vinyl resins and the mixtures were calendered at a temperature of 160° C. to give rigid sheets.
(§4) The sheets were then heated in a thermostated oven (185° C. or 210° C.) for different intervals of time until incipient carbonization.
(§5) The coloration of the samples was compared to a standard scale of coloration, known as the GARDNER scale and was expressed in terms of the reference figures of the GARDNER scale.
(§6) This study was carried out with the following resin:
(§7) Polyvinyl chloride resin
(§8) SL 2016 is a solution of zinc-2-ethyl-hexanoate in a mixture of hydrocarbons boiling between 158° C. and 184° C.
A second trial was performed at a temperature of 185° C., with a resin containing 0.3 part of stabilizer, the samples being removed from the oven every 6 minutes over a period of 24 minutes, then every 3 minutes until the 42nd minute (or until carbonization).

[6] = Photostabilizing power, PVC plates exposed to the sun, GARDNER scale
Protocol: (§9) The photostabilizing power of the compounds of the invention was studied by exposing to the sun polyvinyl chloride plates which had been stabilized either by a dihydropyridine of the invention or by 2-phenyl-indole, or again by 2-(3'-methoxy-4'-hydroxy)-indole. This last product is an extremely valuable thermostabilizer for thermoplastic resins and is described in British Pat. No. 1,489,685.
(§10) The resin given hereunder was prepared by mixing on cylinders at 160° C.:
(§11) The plates of stabilized polyvinyl chloride, together with a plate which had not been stabilized, were stood in the sun under the same conditions and at the same time. Their colour was measured after 6 hours and 12 hours of exposure.
(§12) The coloration of the plates was determined according to two methods:
On the plates themselves, following the GARDNER scale, as in the section on thermostability,
The sign + means that the coloration lies between the lower unit and the upper half-unit. Thus, 3+ means that the coloration lies between 3 and 3.5. Similarly, the sign - means that the coloration lies between the lower half-unit and the upper unit.

[7] = Static thermostability (GARDNER method), rigid PVC sheets, 210° C., 0.3 part stabilizer
Protocol: as §1, §2, §3, §4, §5, §6, §7, §8
The first trial was carried out at 210° C. with a resin containing 0.3 part by weight of stabilizer, the sheets being removed from the oven every three minutes over a period of 21 minutes.

[8] = Photostabilizing power, tetrahydrofuran solution of plates exposed to the sun, French Pharmacopeia
Protocol: as §9, §10, §11, §12
On a solution of these plates in tetrahydrofuran, the coloration of th solution being measured according to the French Pharmacopeia (IXth edition, II-338).

[9] = Comparison with stabilizer G1, 0.3 part, 185° C.
[10] = Photostabilizing power, sheets exposed to the sun, rigid co-polymer (b)
Protocol: (§13) The sheets were exposed to the sun and their colorations were also determined according to the GARDNER method.

[11] = Static thermostability (GARDNER), rigid co-polymer, 185° C.; details: for coloration, GARDNER scale: 0.1 part
Protocol: (§14) The study of the static thermostability of vinyl co-polymers was carried out according to the GARDNER method described above and, also in a more detailed manner in British Patent No. 1,489,685.
(a) Rigid co-polymer vinyl chloride-vinyl acetate
(§15) The following compound was prepared:
(§16) The sheets were heated in a ventilated oven at 185° C. and the following results were obtained: […]

[12] = Thermostability, rigid co-polymer (d), ventilated oven 210° C.; details: 0.3 part
Protocol: as §14
(d) Rigid co-polymer vinyl chloride-vinylidene chloride
as §15
The sheets were heated in a ventilated oven at 210° C.

[13] = Photostabilizing power, sheets exposed to the sun, co-polymer (a)
Protocol: as §13

[14] = Thermostability, flexible co-polymer (c), Metrastat oven 160° C.; details: 0.3 part
Protocol: as §14
(c) Flexible co-polymer vinyl chloride-vinyl acetate
as §15
The sheets were heated in a Metrastat oven at 160° C. and the following results were obtained: […]

[15] = Comparison with 1,4-butanediol-β-aminocrotonate and methyl-β-aminocrotonate, rigid co-polymer, 185° C.; details: 0.5 part
Protocol: (a) Comparison with 1,4-butanediol-β-aminocrotonate and with methyl-β-aminocrotonate.
The following rigid co-polymer was prepared:
as §16

[16] = Comparison with 2-phenyl-indole, vinyl chloride-vinylidene chloride co-polymer, 210° C.; details: 0.3 part
Protocol: A second test was made using the following compound:
The sheets were heated in a ventilated oven at 210° C. and the following results were obtained: […]

[17] = Thermostability, flexible co-polymer (b), Metrastat oven 160° C.; details: 0.2 part
Protocol: as §14
(b) Flexible co-polymer vinyl chloride-vinyl acetate.
as §15
The resin was allowed to gel for 5 minutes at 120° C. and the sheets were heated at 160° C. in a Metrastat oven.

COc1ccc(O)c(C(C)(C)C)c1 [2-Terbutyl-4-methoxy-phenol]
Oxidation potential [1]: 0.81 ± 0.01 volts

COc1ccc(O)cc1 [4-Methoxy-phenol]
Oxidation potential [1]: 0.89 ± 0.01 volts

C#CCOC(=O)C1=C(C)NC(C)=C(C(=O)OCC#C)C1 [Compound 2, 2,6-Dimethyl-3,5-dicarbopropargyloxy-1,4-dihydropyridine]
Oxidation potential [1]: 0.80 ± 0.01 volts
coloration, GARDNER scale ([2]; 0 min): 1
coloration, GARDNER scale ([2]; 2 min): 1
coloration, GARDNER scale ([2]; 4 min): 2
coloration, GARDNER scale ([2]; 6 min): 4
coloration, GARDNER scale ([2]; 8 min): 8
coloration, GARDNER scale ([2]; 10 min): 10
coloration, GARDNER scale ([2]; 12 min): 12
coloration, GARDNER scale ([2]; 14 min): 13
coloration, GARDNER scale ([3]; 0 min): 1
coloration, GARDNER scale ([3]; 2 min): 1
coloration, GARDNER scale ([3]; 4 min): 2
coloration, GARDNER scale ([3]; 6 min): 3
coloration, GARDNER scale ([3]; 10 min): 8.5
coloration, GARDNER scale ([3]; 12 min): 13
coloration, GARDNER scale ([3]; 14 min): 17
coloration, GARDNER scale ([3]; column without printed time, between 6 and 10 min): 4
coloration, GARDNER scale ([4]; 0 min): 1
coloration, GARDNER scale ([4]; 2 min): 1
coloration, GARDNER scale ([4]; 4 min): 1.5
coloration, GARDNER scale ([4]; 6 min): 5
coloration, GARDNER scale ([4]; 8 min): 10
coloration, GARDNER scale ([4]; 10 min): 12
coloration, GARDNER scale ([4]; 12 min): 16
coloration, GARDNER scale ([5]; 0 min): 1
coloration, GARDNER scale ([5]; 6 min): 1
coloration, GARDNER scale ([5]; 12 min): 2
coloration, GARDNER scale ([5]; 18 min): 4
coloration, GARDNER scale ([5]; 24 min): 6
coloration, GARDNER scale ([5]; 27 min): 7
coloration, GARDNER scale ([5]; 30 min): 8.5
coloration, GARDNER scale ([5]; 33 min): 9
coloration, GARDNER scale ([5]; 36 min): 10.5
coloration, GARDNER scale ([5]; 39 min): 12
coloration, GARDNER scale ([5]; 42 min): 18
Coloration of the plates GARDNER ([6]; exposure to sun 0): 1
Coloration of the plates GARDNER ([6]; exposure to sun 6h): 1
Coloration of the plates GARDNER ([6]; exposure to sun 12h): 1.5
coloration, GARDNER scale ([7]; 0 min): 1
coloration of the resins, in words ([7]; 0 to 3 minutes): considerably less
coloration, GARDNER scale ([7]; 3 min): 1
thermostabilizing power compared to 2-phenyl-indole, in words ([7]; 210° C.): greatly superior to 2-phenyl-indole
coloration, GARDNER scale ([7]; 6 min): 1
coloration, GARDNER scale ([7]; 9 min): 4
coloration, GARDNER scale ([7]; 12 min): 8
coloration, GARDNER scale ([7]; 15 min): 12
coloration, GARDNER scale ([7]; 18 min): Burnt
Coloration of the plates FRENCH PHARMACOPEIA ([8]; exposure to sun 0): JV6
Coloration of the plates FRENCH PHARMACOPEIA ([8]; exposure to sun 6h): JV6
Coloration of the plates FRENCH PHARMACOPEIA ([8]; exposure to sun 12h): JV5

CC1=C(C(=O)OCCOc2ccccc2)CC(C(=O)OCCOc2ccccc2)=C(C)N1 [Compound 28]
coloration, GARDNER scale ([9]; 0 min): 1
coloration, GARDNER scale ([9]; 2 min): 1
coloration, GARDNER scale ([9]; 4 min): 2
coloration, GARDNER scale ([9]; 6 min): 4
coloration, GARDNER scale ([9]; 8 min): 5
coloration, GARDNER scale ([9]; 10 min): 9
coloration, GARDNER scale ([9]; 12 min): 11
coloration, GARDNER scale ([9]; 14 min): 13
Colour in GARDNER degrees ([10]; After 24 hours): 3.5 GARDNER degrees
Colour in GARDNER degrees ([10]; Time 0): 1.5 GARDNER degrees
thermostabilizing properties, in words [11]: clearly show the thermostabilizing properties
coloration, GARDNER scale ([11]; 0 min): 1
coloration, GARDNER scale ([11]; 2 min): 1
coloration, GARDNER scale ([11]; 4 min): 4
coloration, GARDNER scale ([11]; 6 min): 10
coloration, GARDNER scale ([11]; 8 min): 12
coloration, GARDNER scale ([11]; 10 min): 13
coloration, GARDNER scale ([11]; 12 min): 15
coloration, GARDNER scale ([11]; 14 min): 17
coloration, GARDNER scale ([12]; 0 min): 1.5
coloration, GARDNER scale ([12]; 3 min): 2
coloration, GARDNER scale ([12]; 6 min): 3
coloration, GARDNER scale ([12]; 9 min): 3.5
coloration, GARDNER scale ([12]; 12 min): 7
coloration, GARDNER scale ([12]; 15 min): 15
Colour in GARDNER degrees ([13]; After 24 hours): 1 GARDNER degrees
Colour in GARDNER degrees ([13]; Time 0): 1 GARDNER degrees
coloration, GARDNER scale ([14]; 0 min): 1
coloration, GARDNER scale ([14]; 10 min): 1
coloration, GARDNER scale ([14]; 20 min): 2
coloration, GARDNER scale ([14]; 30 min): 5
coloration, GARDNER scale ([14]; 40 min): 7
coloration, GARDNER scale ([14]; 50 min): 10
coloration, GARDNER scale ([14]; 60 min): 12
coloration, GARDNER scale ([15]; 0 min): 1
coloration, GARDNER scale ([15]; 2 min): 1
coloration, GARDNER scale ([15]; 4 min): 5
coloration, GARDNER scale ([15]; 6 min): 7
coloration, GARDNER scale ([15]; 8 min): 11
coloration, GARDNER scale ([15]; 10 min): 13
coloration, GARDNER scale ([15]; 12 min): 17
coloration, GARDNER scale ([16]; 0 min): 1.5
coloration, GARDNER scale ([16]; 3 min): 2
coloration, GARDNER scale ([16]; 6 min): 3
coloration, GARDNER scale ([16]; 9 min): 3.5
coloration, GARDNER scale ([16]; 12 min): 7
coloration, GARDNER scale ([16]; 15 min): 15
coloration, GARDNER scale ([17]; 0 min): 1
coloration, GARDNER scale ([17]; 30 min): 2
coloration, GARDNER scale ([17]; 40 min): 6
coloration, GARDNER scale ([17]; 50 min): 12
coloration, GARDNER scale ([17]; 60 min): 15
coloration, GARDNER scale ([7]; 0 min): 1
coloration, GARDNER scale ([7]; 3 min): 1
coloration, GARDNER scale ([7]; 6 min): 1
coloration, GARDNER scale ([7]; 9 min): 3
coloration, GARDNER scale ([7]; 12 min): 4
coloration, GARDNER scale ([7]; 15 min): 5
coloration, GARDNER scale ([7]; 18 min): 10
coloration, GARDNER scale ([7]; 21 min): Burnt

Oc1ccc(O)cc1 [Hydroquinone]
Oxidation potential [1]: 0.83 ± 0.01 volts
